Experimental data taken from PMC9865890, “N-Derivatives of (Z)-Methyl 3-(4-Oxo-2-thioxothiazolidin-5-ylidene)methyl)-1H-indole-2-carboxylates as Antimicrobial Agents—In Silico and In Vitro Evaluation” (Pharmaceuticals, 2023).
Values after ≈ are worked out from the molar mass of the structure shown. Read-outs that look alike come from different tables or passages of the source.

Key:
[1] = test system: Aspergillus niger (ATCC 6275); assay: Antifungal bioassay (MIC/MFC); format: cell-based; conditions: ATCC6275, A.n. (A. niger)
Description: (§1) For the antifungal bioassays, six fungi were used: […] The organisms were obtained from the Mycological Laboratory, Department of Plant Physiology, Institute for Biological Research “Siniša Stankovic”, Belgrade, Serbia. All experiments were performed in duplicate.

[2] = test system: Aspergillus versicolor (ATCC 11730); assay: Antifungal bioassay (MIC/MFC); format: cell-based; conditions: ATCC11730, A.v. (A. versicolor)
Description: as §1

A. ochraceus = assay: Antifungal bioassay (MIC/MFC); format: cell-based; conditions: Aspergillus ochraceus, A.o. (A. ochraceus); for MIC: read-out: MIC
Description: as §1

[3] = test system: Aspergillus fumigatus (ATCC 1022); assay: Antifungal bioassay (MIC/MFC); format: cell-based; conditions: ATCC1022, A.f. (A. fumigatus)
Description: as §1

[4] = test system: Penicillium funiculosum (ATCC 36839); assay: Antifungal bioassay (MIC/MFC); format: cell-based; conditions: Talaromyces funiculosus, ATCC36839; P.f. (P. funiculosum)
Description: as §1

P. ochrochloron = assay: Antifungal bioassay (MIC/MFC); format: cell-based; conditions: for MFC: P.o. (P. ochrochloron); for MIC: P.o. (P. ochrochloron; text: P. ochramensis)
Description: as §1

[5] = test system: Staphylococcus aureus (ATCC 6538); assay: Antibacterial microdilution (MIC/MBC); format: cell-based; conditions: S.a. (S. aureus)
Description: (§2) The synthesized compounds (Table 1) were evaluated for their antibacterial activity against a panel of eight species using a microdilution method with ampicillin and streptomycin as reference drugs. […] The order of activity can be presented as: 8 > 11 > 2 > 1 > 12 > 3 > 17 > 7 > 5 > 13 > 14 > 16 > 9 > 4 = 6 > 15 > 10. […] Cloacae. […] The most sensitive bacteria appeared to be En. cloacae, while E. coli was the most resistant one, followed by M. flavus.
(§3) The following Gram-negative bacteria: Escherichia coli (ATCC 35210), Enterobacter cloacae (clinical isolate), Salmonella typhimurium (ATCC 13311), as well as Gram-positive bacteria: Listeria monocytogenes (NCTC 7973), Bacillus cereus (clinical isolate), and Staphylococcus aureus (ATCC 6538) were used. The organisms were obtained from the Mycological Laboratory, Department of Plant Physiology, Institute for Biological Research “Siniša Stankovic”, Belgrade, Serbia. The minimum inhibitory (MIC) and minimum bactericidal (MBC) concentrations were determined by the modified microdilution method, as previously reported.

[6] = test system: Escherichia coli (ATCC 35210); assay: Antibacterial microdilution (MIC/MBC); format: cell-based; conditions: Escherichia coli, ATCC35210, E. coli; for MIC: read-out: MIC
Description: as §2, §3

[7] = test system: Enterobacter cloacae (clinical isolate); assay: Antibacterial microdilution (MIC/MBC); format: cell-based; conditions: Enterobacter cloacae, En.cl (En. cloacae); for MIC: read-out: MIC
Description: as §2, §3

M. flavus = assay: Antibacterial microdilution (MIC/MBC); format: cell-based; conditions: Micrococcus flavus; M.f. (M. flavus)
Description: as §2, §3

[8] = test system: Listeria monocytogenes (NCTC 7973); assay: Antibacterial microdilution (MIC/MBC); format: cell-based; conditions: Listeria monocytogenes, NCTC7973, L.m. (L. monocytogenes); for MIC: read-out: MIC
Description: as §2, §3

[9] = test system: Salmonella typhimurium (ATCC 13311); assay: Antibacterial microdilution (MIC/MBC); format: cell-based; conditions: S.t. (S. typhimurium)
Description: as §2, §3

P. aeruginosa = assay: Antibacterial microdilution (MIC/MBC); format: cell-based; conditions: Pseudomonas aeruginosa, P.a. (P. aeruginosa); for MIC: read-out: MIC
Description: as §2, §3

[10] = test system: Bacillus cereus (clinical isolate); assay: Antibacterial microdilution (MIC/MBC); format: cell-based; conditions: Bacillus cereus, B.c. (B. cereus); for MIC: read-out: MIC
Description: as §2, §3

[11] = test system: Penicillium verrucosum var. cyclopium (food isolate); assay: Antifungal bioassay (MIC/MFC); format: cell-based
Description: For the antifungal bioassays, six fungi were used: Aspergillus niger (ATCC 6275), Aspergillus fumigatus (ATCC 1022), Aspergillus versicolor (ATCC 11730), Penicillium funiculosum (ATCC 36839), Trichoderma viride (IAM 5061), and Penicillium verrucosum var. cyclopium (food isolate). The organisms were obtained from the Mycological Laboratory, Department of Plant Physiology, Institute for Biological Research “Siniša Stankovic”, Belgrade, Serbia. All experiments were performed in duplicate.

[12] = test system: Trichoderma viride (IAM 5061); assay: Antifungal bioassay (MIC/MFC); format: cell-based; conditions: T.v. (T. viride)
Description: as §1

[13] = Penicillium ochrochloron, read-out: MIC
[14] = Staphylococcus aureus, ATCC6538
[15] = Staphylococcus aureus, ATCC6538, read-out: MIC
[16] = Salmonella enterica, read-out: MIC

SMILES | MFC [1] [µg/mL] | MIC [1] [µg/mL] | MFC [2] [µg/mL] | MIC [2] [µg/mL] | MFC (A. ochraceus) [µg/mL] | MIC (A. ochraceus) [µg/mL] | MFC [3] [µg/mL] | MIC [3] [µg/mL] | MFC [4] [µg/mL] | MIC [4] [µg/mL] | MFC (P. ochrochloron; Penicillium ochrochloron) [µg/mL] | MIC (P. ochrochloron; [13]) [µg/mL] | MBC [5, 14] [µg/mL] | MIC [5, 15] [µg/mL] | MBC [6] [µg/mL] | MIC [6] [µg/mL] | MBC [7] [µg/mL] | MIC [7] [µg/mL] | MBC (M. flavus) [µg/mL] | MIC (M. flavus) [µg/mL] | further results
COC(=O)c1[nH]c2ccccc2c1/C=C1\SC(=S)N(CCC(=O)O)C1=O [Compound 17, (Z)-3-(5-((2-(methoxycarbonyl)-1H-indol-3-yl)methylene)-4-oxo-2-thioxothiazolidin-3-yl)propanoic acid] | 15 ± 3 (≈ 38.4 µM) | 22 ± 5 (≈ 56.3 µM) | 30 ± 10 (≈ 76.8 µM) | 15 ± 3 (≈ 38.4 µM) | 15 ± 3 (≈ 38.4 µM) | 8 ± 0.6 (≈ 20.5 µM) | 120 ± 40 (≈ 307 µM) | 60 ± 6 (≈ 154 µM) | 30 ± 10 (≈ 76.8 µM) | 15 ± 3 (≈ 38.4 µM) | 30 ± 10 (≈ 76.8 µM) | 15 ± 3 (≈ 38.4 µM) | 15 (≈ 38.4 µM) | 8 (≈ 20.5 µM) | 60 ± 6 (≈ 154 µM) | 45 ± 3 (≈ 115 µM) | 15 ± 9 (≈ 38.4 µM) | 8 ± 0.6 (≈ 20.5 µM) | 60 ± 6 (≈ 154 µM) | 30 ± 10 (≈ 76.8 µM) | MIC [5]: 8 ± 0.6 µg/mL (≈ 20.5 µM); MBC [8]: 60 ± 6 µg/mL (≈ 154 µM); MIC [8]: 30 ± 10 µg/mL (≈ 76.8 µM); MBC ([9]; Salmonella enterica): 60 ± 6 µg/mL (≈ 154 µM); MIC [9, 16]: 30 ± 10 µg/mL (≈ 76.8 µM); MBC (P. aeruginosa): 15 ± 9 µg/mL (≈ 38.4 µM); MIC (P. aeruginosa): 8 µg/mL (≈ 20.5 µM); MBC [10]: 60 ± 6 µg/mL (≈ 154 µM); MIC [10]: 30 ± 10 µg/mL (≈ 76.8 µM); MFC [11]: 60 ± 6 µg/mL (≈ 154 µM); MIC [11]: 30 ± 10 µg/mL (≈ 76.8 µM); melting point: 265 to 266 °C
COC(=O)c1[nH]c2ccccc2c1/C=C1\SC(=S)N(Cc2ccco2)C1=O [Compound 7, (Z)-methyl 3-((3-(furan-2-ylmethyl)-4-oxo-2-thioxothiazolidin-5-ylidene)methyl)-1H-indole-2-carboxylate] | 15 ± 3 (≈ 37.6 µM) | 8 ± 0.6 (≈ 20.1 µM) | 15 ± 3 (≈ 37.6 µM) | 8 ± 0.6 (≈ 20.1 µM) | 15 ± 3 (≈ 37.6 µM) | 8 ± 0.6 (≈ 20.1 µM) | 120 ± 40 (≈ 301 µM) | 60 ± 6 (≈ 151 µM) | 30 ± 10 (≈ 75.3 µM) | 15 ± 3 (≈ 37.6 µM) | 15 ± 3 (≈ 37.6 µM) | 8 (≈ 20.1 µM) | 30 ± 10 (≈ 75.3 µM) | 15 (≈ 37.6 µM) | 60 ± 6 (≈ 151 µM) | 30 ± 10 (≈ 75.3 µM) | 30 ± 10 (≈ 75.3 µM) | 15 ± 9 (≈ 37.6 µM) | 60 ± 6 (≈ 151 µM) | 45 ± 3 (≈ 113 µM) | MIC [12]: 4 ± 1 µg/mL (≈ 10 µM); MFC ([12]; Trichoderma viride, IAM5061): 8 ± 0.6 µg/mL (≈ 20.1 µM); MIC ([12]; Trichoderma viride, IAM5061, read-out: MIC): 4 µg/mL (≈ 10 µM); MIC (P. ochrochloron): 8 ± 0.6 µg/mL (≈ 20.1 µM); MIC [5]: 15 ± 9 µg/mL (≈ 37.6 µM); MBC [8]: 60 ± 6 µg/mL (≈ 151 µM); MIC [8]: 30 ± 10 µg/mL (≈ 75.3 µM); MIC [9]: 15 ± 9 µg/mL (≈ 37.6 µM); MBC ([9]; Salmonella enterica): 30 ± 10 µg/mL (≈ 75.3 µM); MIC [9, 16]: 15 µg/mL (≈ 37.6 µM); MBC (P. aeruginosa): 60 ± 6 µg/mL (≈ 151 µM); MIC (P. aeruginosa): 30 ± 10 µg/mL (≈ 75.3 µM); MBC [10]: 60 ± 6 µg/mL (≈ 151 µM); MIC [10]: 30 ± 10 µg/mL (≈ 75.3 µM); MFC [11]: 30 ± 10 µg/mL (≈ 75.3 µM); MIC [11]: 15 ± 3 µg/mL (≈ 37.6 µM)
COC(=O)c1[nH]c2cc(OC)ccc2c1/C=C1\SC(=S)N(c2cccc(F)c2)C1=O [Compound 13, (Z)-methyl 3-((3-(3-fluorophenyl)-4-oxo-2-thioxothiazolidin-5-ylidene)methyl)-6-methoxy-1H-indole-2-carboxylate] | 30 ± 10 (≈ 67.8 µM) | 15 ± 3 (≈ 33.9 µM) | 30 ± 10 (≈ 67.8 µM) | 15 ± 3 (≈ 33.9 µM) | 15 ± 3 (≈ 33.9 µM) | 8 ± 0.6 (≈ 18.1 µM) | 120 ± 40 (≈ 271 µM) | 60 ± 6 (≈ 136 µM) | 30 ± 10 (≈ 67.8 µM) | 15 ± 3 (≈ 33.9 µM) | 30 ± 10 (≈ 67.8 µM) | 15 ± 3 (≈ 33.9 µM) | 30 ± 10 (≈ 67.8 µM) | 15 ± 9 (≈ 33.9 µM) | 60 ± 6 (≈ 136 µM) | 45 ± 3 (≈ 102 µM) | 30 ± 10 (≈ 67.8 µM) | 15 ± 9 (≈ 33.9 µM) | 60 ± 6 (≈ 136 µM) | 45 ± 3 (≈ 102 µM) | MBC [8]: 60 ± 6 µg/mL (≈ 136 µM); MIC [8]: 30 ± 10 µg/mL (≈ 67.8 µM); MBC ([9]; Salmonella enterica): 60 ± 6 µg/mL (≈ 136 µM); MIC [9, 16]: 30 ± 10 µg/mL (≈ 67.8 µM); MBC (P. aeruginosa): 60 ± 6 µg/mL (≈ 136 µM); MIC (P. aeruginosa): 30 ± 10 µg/mL (≈ 67.8 µM); MBC [10]: 60 ± 6 µg/mL (≈ 136 µM); MIC [10]: 30 ± 10 µg/mL (≈ 67.8 µM); MFC [11]: 30 ± 10 µg/mL (≈ 67.8 µM); MIC [11]: 15 ± 3 µg/mL (≈ 33.9 µM); melting point: 238 to 240 °C
